Measurements as given in patent US10961234B2, “Oxazole derivatives for use in the treatment of cancer” (LIFEARC, priority 2016, dated 2021).

Assays:
[1] = system: wild type LM2 and CRISPR edited LM2; assay: Cell potency in CRISPR edited (PAICS knock-out) LM2 versus wild type LM2; assay type: cell-based, human; settings: CRISPR edited LM2 vs wild type LM2
Description: Cas9 nuclease-mediated gene editing (Sander and Joung, 2014) was performed using a CRISPR RNA guide sequence ([…], PAM: AGG) targeting exon 3 in the human PAICS gene (accession number: NM_006452).
Stable cell clones were isolated and gene disruption confirmed by DNA sequencing and the absence of PAICS cellular protein expression confirmed by Western blotting.
A small set of compounds were tested against wild type LM2 and CRISPR edited LM2 to see to what extent the cellular potency was driven by PAICS mediated effects.

WT full length PAICS = biological target: T1, WT full length PAICS (Homo sapiens, UniProt P22234); assay: Biochemical assay to measure PAICS activity (Transcreener ADP2 FI, SAICAR synthetase reaction); settings: PAICS 2.5 nM, 30 mins pre-incubation, ADP detection by fluorescence intensity
T1 construct: 5 μl WT full length PAICS (final assay concentration, fac, 2.5 nM) in basic buffer
T1 sequence (P22234 1-425): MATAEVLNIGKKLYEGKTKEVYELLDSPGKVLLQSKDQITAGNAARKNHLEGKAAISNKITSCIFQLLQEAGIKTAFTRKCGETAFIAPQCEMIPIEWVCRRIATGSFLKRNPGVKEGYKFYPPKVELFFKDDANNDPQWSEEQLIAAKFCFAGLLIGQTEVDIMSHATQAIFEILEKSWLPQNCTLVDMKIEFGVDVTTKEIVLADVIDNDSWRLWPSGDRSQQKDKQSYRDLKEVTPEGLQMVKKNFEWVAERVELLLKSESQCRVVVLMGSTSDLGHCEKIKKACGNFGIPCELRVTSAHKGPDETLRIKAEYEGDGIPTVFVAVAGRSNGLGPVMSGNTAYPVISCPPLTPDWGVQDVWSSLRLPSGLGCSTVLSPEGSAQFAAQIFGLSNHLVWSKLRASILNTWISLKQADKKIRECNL
In short: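 Enzyme (2.5 nM) pre-incubated 30 min RT with compound (top 1 mM or 30 μM, half-log 10-point, duplicate) in 50 mM Tris-HCl pH8, 0.5 mM EDTA; CAIR (10 μM, ~5 μM after 1 h AIR/CAIR equilibration with MgCl2/KHCO3) then ATP/aspartate (30 μM/180 μM) for 30 min RT. ADP read by Transcreener fluorescence intensity (590/617 nm).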

[2] = system: LM2 and MDA-MB-231 breast cancer cell lines; assay: PAICS 2D cell proliferation assay; assay type: cell-based; settings: Homo sapiens; 72 hours incubation; cell line (LM2 or MDA-MB-231) not given
In short: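 Cells seeded at 1000/well, dosed after 24 h with a 10-point ½-log series (top 100 μM, 1% DMSO final), then incubated 72 h at 37 °C. Dead cells measured by CellTox Green DNA staining and viability by CellTiter-Glo ATP luminescence, both expressed as % of controls (mean±SEM, duplicate curves).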

| Potency shift: CRISPR Cell EC50/WT Cell EC50 [1] | IC50 (WT full length PAICS) [nM] | EC50 [2] [nM] | Compound |
| --- | --- | --- | --- |
| >10 | > 100 | 100 to 250 | CN1CCN(c2ccc(-c3ccc(Cl)c(NC(=O)c4coc(N)n4)c3)cn2)CC1 [Example 37, 2-Amino-N-{2-chloro-5-[6-(4-methylpiperazin-1-yl)pyridin-3-yl]phenyl}-1,3-oxazole-4-carboxamide] |
| >30 | < 10 | < 100 | CN(C)CCCOc1ncc(-c2ccc(Cl)c(NC(=O)c3coc(N)n3)c2)s1 [Example 86, 2-Amino-N-(2-chloro-5-{2-[3-(dimethylamino)propoxy]-1,3-thiazol-5-yl}phenyl)-1,3-oxazole-4-carboxamide] |
| >80 | 10 to 25 | < 100 | CCNCCCn1cc(-c2ccc(Cl)c(NC(=O)c3coc(N)n3)c2)cn1 [Example 47, 2-Amino-N-(2-chloro-5-(1-(3-(ethylamino)propyl)-1H-pyrazol-4-yl)phenyl)oxazole-4-carboxamide] |
